# Starred links: 1 amine or outer side, 2 acyl side, 3 side chain; linkers in the order of their positions; H or OH if unused. Positions of bridges follow the written chain, without caps; N, C: chain ends. Non-standard residues stand in square brackets, D forms with d. Residues, ends and D or L forms follow the SMILES beside them. *: point of attachment. hPhe(3,5-F2-4-CF3) = N[C@@H](CCc1cc(F)c(C(F)(F)F)c(F)c1)C(=O)O; hPhe(3-Cl-4-CF3) = N[C@@H](CCc1ccc(C(F)(F)F)c(Cl)c1)C(=O)O; NMePhe(4-CF3) = CN[C@@H](Cc1ccc(C(F)(F)F)cc1)C(=O)O; NMePhe(3-CN) = CN[C@@H](Cc1cccc(C#N)c1)C(=O)O; NMePhe(3-OMe) = CN[C@@H](Cc1cccc(OC)c1)C(=O)O; NMePhe(3-Br) = CN[C@@H](Cc1cccc(Br)c1)C(=O)O; NMePhe(4-Me) = CN[C@@H](Cc1ccc(C)cc1)C(=O)O; NMePhe(2-Cl) = CN[C@@H](Cc1ccccc1Cl)C(=O)O; NMedβ3hAla = C[C@H](CC(=O)[*:2])N(C)[*:1]; NMeGly(cPent) = CN[C@H](C(=O)O)C1CCCC1; X70 = CC(C)(O)COCCN(CC(=O)[*:2])[*:1]; X84 = O=C(CN(CCc1ccncc1)[*:1])[*:2]; NMeCha = CN[C@@H](CC1CCCCC1)C(=O)O; NMeChg = CN[C@H](C(=O)O)C1CCCCC1; NMeF = CN[C@@H](Cc1ccccc1)C(=O)O; NMeI = CC[C@H](C)[C@H](NC)C(=O)O; dNMeF = CN[C@H](Cc1ccccc1)C(=O)O; NMeD = CN[C@@H](CC(=O)O)C(=O)O; NMeL = CN[C@@H](CC(C)C)C(=O)O; d(β3hP) = O=C(O)C[C@H]1CCCN1; NMeNva = CCC[C@H](NC)C(=O)O; NMeV = CN[C@H](C(=O)O)C(C)C; d(β3hA) = C[C@@H](N)CC(=O)O; NMeS = CN[C@@H](CO)C(=O)O; NMeA = CN[C@@H](C)C(=O)O; Piperidide = C1CCN(*)CC1; Pyrrolidide = C1CCN(*)C1; dNMeA = CN[C@H](C)C(=O)O; Ac5c = NC1(C(=O)O)CCCC1; Aze = O=C(O)[C@@H]1CCN1; NEtG = CCNCC(=O)O; Sar = CNCC(=O)O; Propyl = CCC*
# Molecular target: T1, Kras and SOS1 (biotin-tagged human Kras loaded with GDP, His-tagged human SOS1) (Homo sapiens, UniProt P01116, G12D)
# T1 construct: made in house; host or cells: E. coli (stated for Kras only)
# Experiment: Protein-protein interaction inhibition between Kras and SOS1 (KrasGl2D-SOS PPI) using AlphaScreen
# Format: binding
# Conditions: AlphaScreen; biotin-tagged human Kras loaded with GDP, His-tagged human SOS1; read-out: KRAS G12D-SOS PPI IC50
# How it was run: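 AlphaScreen format: Ni donor beads capture His-SOS1, streptavidin acceptor beads capture biotinylated Kras (E. coli-expressed, GDP-loaded post-purification). Excite 680 nm, read 520-620 nm.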
# T1 sequence (P01116 1-188 isoform P01116-2 G12D): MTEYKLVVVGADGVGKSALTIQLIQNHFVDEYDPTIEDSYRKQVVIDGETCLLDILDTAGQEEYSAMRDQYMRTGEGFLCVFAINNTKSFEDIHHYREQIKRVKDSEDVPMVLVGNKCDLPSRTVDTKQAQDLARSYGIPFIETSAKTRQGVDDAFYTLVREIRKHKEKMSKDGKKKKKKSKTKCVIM
row,Compound,IC50
1,CC[C@H](C)[C@@H]1NC(=O)[C@H](CC(C)C)N(C)C(=O)C[C@@H](C(=O)N2CCCCC2)N(C)C(=O)[C@H]([C@@H](C)CC)N(C)C(=O)C2(CCCC2)NC(=O)[C@@H](Cc2ccccc2)N(C)C(=O)[C@H](CCc2ccc(C(F)(F)F)c(Cl)c2)NC(=O)CN(C)C(=O)[C@H](Cc2ccc(C)cc2)N(C)C(=O)[C@@H]2CCN2C(=O)[C@H](C)N(C)C1=O [Compound 1989] ([NMeL]I[NMeA][Aze][NMePhe(4-Me)][Sar][hPhe(3-Cl-4-CF3)][dNMeF][Ac5c][NMeI][NMeD]-Piperidide; lactam N-11),460 nM
2,CC[C@H](C)[C@@H]1NC(=O)[C@H](CC(C)C)N(C)C(=O)C[C@@H](C(=O)N(C)C)N(C)C(=O)[C@H]([C@@H](C)CC)N(C)C(=O)C2(CCCC2)NC(=O)[C@H](Cc2cccc(OC)c2)N(C)C(=O)[C@H](CCc2ccc(C(F)(F)F)c(Cl)c2)NC(=O)CN(C)C(=O)[C@H](Cc2ccc(C)cc2)N(C)C(=O)[C@@H]2CCN2C(=O)[C@H](C)N(C)C1=O [Compound 1991] ([NMeL]I[NMeA][Aze][NMePhe(4-Me)][Sar][hPhe(3-Cl-4-CF3)][NMePhe(3-OMe)][Ac5c][NMeI][NMeD]-NMe2; lactam N-11),9.2 nM
3,"CC[C@H](C)[C@@H]1NC(=O)[C@H](C)N(C)C(=O)C[C@@H](C(=O)N2CCCCC2)N(C)C(=O)[C@H]([C@@H](C)CC)N(C)C(=O)C2(CCCC2)NC(=O)[C@@H](Cc2ccccc2)N(C)C(=O)[C@H](CCc2cc(F)c(C(F)(F)F)c(F)c2)NC(=O)CN(C)C(=O)[C@H](Cc2ccc(C(F)(F)F)cc2)N(C)C(=O)[C@@H]2CCN2C(=O)[C@H](C)N(C)C1=O [Compound 1992] ([NMeA]I[NMeA][Aze][NMePhe(4-CF3)][Sar][hPhe(3,5-F2-4-CF3)][dNMeF][Ac5c][NMeI][NMeD]-Piperidide; lactam N-11)",280 nM
4,CC[C@H](C)[C@@H]1NC(=O)[C@H](C)N(C)C(=O)C[C@@H](C(=O)N2CCCCC2)N(C)C(=O)[C@H]([C@@H](C)CC)N(C)C(=O)C2(CCCC2)NC(=O)[C@@H](Cc2ccccc2)N(C)C(=O)[C@H](CCc2ccc(C(F)(F)F)c(Cl)c2)NC(=O)CN(C)C(=O)[C@H](Cc2ccc(C)cc2)N(C)C(=O)[C@@H]2CCN2C(=O)[C@H](C)N(C)C1=O [Compound 1997] ([NMeA]I[NMeA][Aze][NMePhe(4-Me)][Sar][hPhe(3-Cl-4-CF3)][dNMeF][Ac5c][NMeI][NMeD]-Piperidide; lactam N-11),220 nM
5,CC[C@H](C)[C@@H]1NC(=O)[C@H](C)N(C)C(=O)C[C@@H](C(=O)N(C)C)N(C)C(=O)[C@H]([C@@H](C)CC)N(C)C(=O)C2(CCCC2)NC(=O)[C@H](Cc2cccc(Br)c2)N(C)C(=O)[C@H](CCc2ccc(C(F)(F)F)c(Cl)c2)NC(=O)CN(C)C(=O)[C@H](Cc2ccc(C)cc2)N(C)C(=O)[C@@H]2CCN2C(=O)[C@H](C)N(C)C1=O [Compound 2000] ([NMeA]I[NMeA][Aze][NMePhe(4-Me)][Sar][hPhe(3-Cl-4-CF3)][NMePhe(3-Br)][Ac5c][NMeI][NMeD]-NMe2; lactam N-11),15 nM
6,CCC[C@H]1C(=O)N[C@@H]([C@@H](C)CC)C(=O)N(C)CC(=O)N(C)CC(=O)N(C)[C@@H](CC2CCCCC2)C(=O)N(C)CC(=O)N[C@@H](CCc2ccc(C(F)(F)F)c(Cl)c2)C(=O)N2CCC[C@H]2C(=O)NC2(CCCC2)C(=O)N(C)[C@@H](C2CCCCC2)C(=O)N(C)[C@H](C(=O)N2CCCC2)CC(=O)N1C [Compound 2001] ([NMeNva]I[Sar][Sar][NMeCha][Sar][hPhe(3-Cl-4-CF3)]P[Ac5c][NMeChg][NMeD]-Pyrrolidide; lactam N-11),0.48 nM
7,CC[C@H](C)[C@@H]1NC(=O)[C@H](CC(C)C)N(C)C(=O)C[C@@H](C(=O)N(C)C)N(C)C(=O)[C@H]([C@@H](C)CC)N(C)C(=O)C2(CCCC2)NC(=O)[C@H](Cc2cccc(C#N)c2)N(C)C(=O)[C@H](CCc2ccc(C(F)(F)F)c(Cl)c2)NC(=O)CN(C)C(=O)[C@H](Cc2ccc(C)cc2)N(C)C(=O)[C@@H]2CCN2C(=O)[C@H](C)N(C)C1=O [Compound 2002] ([NMeL]I[NMeA][Aze][NMePhe(4-Me)][Sar][hPhe(3-Cl-4-CF3)][NMePhe(3-CN)][Ac5c][NMeI][NMeD]-NMe2; lactam N-11),3 nM
8,CC[C@H](C)[C@@H]1NC(=O)[C@H](CC(C)C)N(C)C(=O)C[C@H]2CCCN2C(=O)[C@H]([C@@H](C)CC)N(C)C(=O)C2(CCCC2)NC(=O)[C@@H]2CCCN2C(=O)[C@H](CCc2ccc(C(F)(F)F)c(Cl)c2)NC(=O)CN(C)C(=O)[C@H](Cc2ccc(C)cc2)N(C)C(=O)[C@@H]2CCN2C(=O)[C@H](C)N(C)C1=O [Compound 2003] (cyclo([Ac5c][NMeI][d(β3hP)][NMeL]I[NMeA][Aze][NMePhe(4-Me)][Sar][hPhe(3-Cl-4-CF3)]P)),8.6 nM
9,CC[C@H](C)[C@@H]1NC(=O)[C@H](C)N(C)C(=O)C[C@@H](C)NC(=O)[C@H](C(C)C)N(C)C(=O)C2(CCCC2)NC(=O)[C@@H]2CCCN2C(=O)[C@H](CCc2ccc(C(F)(F)F)c(Cl)c2)NC(=O)[C@@H](C)N(C)C(=O)[C@H](CC2CCCCC2)N(C)C(=O)CN(C)C(=O)[C@@H]2CCN2C1=O [Compound 2010] (cyclo([Ac5c][NMeV][d(β3hA)][NMeA]I[Aze][Sar][NMeCha][dNMeA][hPhe(3-Cl-4-CF3)]P)),220 nM
10,CC[C@H](C)[C@@H]1NC(=O)[C@H](C)N(C)C(=O)C[C@@H](C(=O)N(C)C)N(C)C(=O)[C@H]([C@@H](C)CC)N(C)C(=O)C2(CCCC2)NC(=O)[C@H](Cc2ccccc2Cl)N(C)C(=O)[C@H](CCc2ccc(C(F)(F)F)c(Cl)c2)NC(=O)CN(C)C(=O)[C@H](Cc2ccc(C)cc2)N(C)C(=O)[C@@H]2CCN2C(=O)[C@H](C)N(C)C1=O [Compound 2011] ([NMeA]I[NMeA][Aze][NMePhe(4-Me)][Sar][hPhe(3-Cl-4-CF3)][NMePhe(2-Cl)][Ac5c][NMeI][NMeD]-NMe2; lactam N-11),17 nM
11,CC[C@H](C)[C@@H]1NC(=O)[C@H](C)N(C)C(=O)C[C@@H](C)NC(=O)[C@H](C(C)C)N(C)C(=O)C2(CCCC2)NC(=O)[C@@H]2CCCN2C(=O)[C@H](CCc2ccc(C(F)(F)F)c(Cl)c2)NC(=O)[C@@H](C)N(C)C(=O)[C@H](CC2CCCCC2)N(C)C(=O)[C@@H]2CCCN2C(=O)CN(CC)C1=O [Compound 2014] (cyclo([Ac5c][NMeV][d(β3hA)][NMeA]I[NEtG]P[NMeCha][dNMeA][hPhe(3-Cl-4-CF3)]P)),340 nM
12,CC[C@H](C)[C@@H]1NC(=O)[C@H](C)N(C)C(=O)C[C@@H](C)NC(=O)[C@H](C(C)C)N(C)C(=O)C2(CCCC2)NC(=O)[C@@H]2CCCN2C(=O)[C@H](CCc2ccc(C(F)(F)F)c(Cl)c2)NC(=O)[C@@H](C)N(C)C(=O)[C@H](CC2CCCCC2)N(C)C(=O)[C@@H]2CCN2C(=O)[C@H](CC2CCCCC2)N(C)C1=O [Compound 2015] (cyclo([Ac5c][NMeV][d(β3hA)][NMeA]I[NMeCha][Aze][NMeCha][dNMeA][hPhe(3-Cl-4-CF3)]P)),260 nM
13,CC[C@H](C)[C@@H]1NC(=O)[C@H](C)N(C)C(=O)C[C@@H](C)NC(=O)[C@H](C(C)C)N(C)C(=O)C2(CCCC2)NC(=O)[C@@H]2CCCN2C(=O)[C@H](CCc2ccc(C(F)(F)F)c(Cl)c2)NC(=O)[C@@H](C)N(C)C(=O)[C@H](CC2CCCCC2)N(C)C(=O)[C@@H]2CCN2C(=O)[C@H](Cc2ccccc2)N(C)C1=O [Compound 2019] (cyclo([Ac5c][NMeV][d(β3hA)][NMeA]I[NMeF][Aze][NMeCha][dNMeA][hPhe(3-Cl-4-CF3)]P)),110 nM
14,CC[C@H](C)[C@@H]1NC(=O)[C@H](CC(C)C)N(C)C(=O)C[C@@H](C(=O)N(C)C)N(C)C(=O)[C@H](C2CCCC2)N(C)C(=O)C2(CCCC2)NC(=O)CN(CCOCC(C)(C)O)C(=O)[C@H](CCc2ccc(C(F)(F)F)c(Cl)c2)NC(=O)CN(C)C(=O)[C@H](CC2CCCCC2)N(C)C(=O)[C@@H]2CCN2C(=O)[C@H](C)N(C)C1=O [Compound 2023] ([NMeL]I[NMeA][Aze][NMeCha][Sar][hPhe(3-Cl-4-CF3)][X70][Ac5c][NMeGly(cPent)][NMeD]-NMe2; lactam N-11),1.7 nM
15,CCCOC[C@H]1C(=O)N(C)CC(=O)N[C@@H](CCc2ccc(C(F)(F)F)c(Cl)c2)C(=O)N(CCOCC(C)(C)O)CC(=O)NC2(CCCC2)C(=O)N(C)[C@@H]([C@@H](C)CC)C(=O)N(C)[C@H](C)CC(=O)N(C)[C@@H](CC(C)C)C(=O)N[C@@H]([C@@H](C)CC)C(=O)N(C)[C@@H](C)C(=O)N2CC[C@H]2C(=O)N1C [Compound 2027] (cyclo([Ac5c][NMeI][NMedβ3hAla][NMeL]I[NMeA][Aze][NMeS](Propyl)[Sar][hPhe(3-Cl-4-CF3)][X70])),110 nM
16,CC[C@H](C)[C@@H]1NC(=O)[C@H](CC(C)C)N(C)C(=O)C[C@@H](C(=O)N(C)C)N(C)C(=O)[C@H]([C@@H](C)CC)N(C)C(=O)C2(CCCC2)NC(=O)CN(CCOCC(C)(C)O)C(=O)[C@H](CCc2ccc(C(F)(F)F)c(Cl)c2)NC(=O)CN(C)C(=O)[C@H](CC2CCCCC2)N(C)C(=O)[C@@H]2CCN2C(=O)[C@H](C)N(C)C1=O [Compound 2028] ([NMeL]I[NMeA][Aze][NMeCha][Sar][hPhe(3-Cl-4-CF3)][X70][Ac5c][NMeI][NMeD]-NMe2; lactam N-11),11 nM
17,CC[C@H](C)[C@@H]1NC(=O)[C@H](CC(C)C)N(C)C(=O)C[C@@H](C(=O)N2CCCCC2)N(C)C(=O)[C@H](C2CCCCC2)N(C)C(=O)C2(CCCC2)NC(=O)CN(CCc2ccncc2)C(=O)[C@H](CCc2ccc(C(F)(F)F)c(Cl)c2)NC(=O)CN(C)C(=O)[C@H](CC2CCCCC2)N(C)C(=O)CN(C)C(=O)CN(C)C1=O [Compound 2029] ([NMeL]I[Sar][Sar][NMeCha][Sar][hPhe(3-Cl-4-CF3)][X84][Ac5c][NMeChg][NMeD]-Piperidide; lactam N-11),0.83 nM

# Reference: patent publication US12371454B2, “Cyclic peptide compound having Kras inhibitory action” (priority 2019, dated 2025)
